23 compounds from patent US20160221948A1, “NITROGEN-CONTAINING SATURATED HETEROCYCLIC COMPOUND” (SUMITOMO CHEMICAL COMPANY, LIMITED, priority 2013, published 2016) can be followed below.

The nature of data set [1]: Pharmacokinetic test (PK test) using rodents. The class given is in vivo. Particulars: mouse, brain and plasma; mice, 10 mg/kg oral, an hour and 4 hours after; read-out: brain-plasma concentration ratio. As for the experimental part:
Moreover, it was verified, as the results of a pharmacokinetic test (PK test) using rodents, that the compound of the present invention has more excellent in vivo kinetics, central nervous system penetration, and exposure level, compared with the pyrrolidine derivative described in Patent Literature 1. In particular, the following Test Example 8 was performed.
Pharmacokinetic Test (PK Test) Using Rodents
Compounds of the present invention were orally administered to mice at a dose of 10 mg/kg, and an hour and 4 hours after, the plasma and the brain were collected, concentrations of the administered compounds were measured by LC/MS/MS. As well, protein binding rates in the plasma and the brain were measured with equilibrium dialysis method, and concentrations of non-binding compounds were calculated. The brain-plasma concentration ratio was about 5 in any cases of an hour and 4 hours after for compounds obtained in Examples 7, 14, 15, 16, 17, 18, 20, 21, 27, 40, and 50, which indicated excellent central nervous system penetration.

Data set [2] deals with human SSTR4 (Homo sapiens, UniProt P31391). Nature of the data set: Evaluation of agonist activities using human SSTR4-stably expressing cells (aequorin luminescence). Particulars: for SSTR4 agonist activity compared with other compounds: Tables 25 to 27; for EC50: luminescence signal, 1 μmol/L somatostatin taken as 100%. Details: expressed in transfected cells; host or cells: HEK293. The class given is cell-based. As for the experimental part:
Evaluation of Agonist Activities Using Cells that stably expressing human-derived SSTR4 (human SSTR4-stably expressing cells)
(1) Human SSTR4-Stably Expressing Cells
Human SSTR4-stably expressing cells were prepared, and cultured. Specifically, HEK293 cells, human kidney-derived cells, were used as host cells. By introducing pcDNA3.1 (cat. No. V79020, invitrogen, Carlsbad, Calif., USA) to which human SSTR gene was inserted into HEK293 cells, human SSTR4-stably expressing cell line was obtained. For selection, G418 (cat. No. 16513-84, Nacalai tesque, Japan) was used.
As the culture medium, D-MEM medium (cat. No. 11995, GIBCO, USA), containing 10% FBS and 200 μg/mL G418, was used, the culture was performed in a 225 cm^2 flask (cat. No. 11-006-010, Iwaki, Japan).
At about 80% confluence, the cells were harvested by treating with 20-fold diluted 0.25% Trypsin-EDTA (cat. No. 35554-64, Nacalai, tesque, Japan). The harvested cells were prepared at a reaction medium composed of Hanks Buffer (cat. No. 14065-056, invitrogen, Carlsbad, Calif., USA)/20 mM Hepes (cat. No. 15630-080, invitrogen, Carlsbad, Calif., USA), and 0.1% BSA (cat. No. A7906, Sigma Aldrich, USA) to 70000 cells/mL. Gα16 and apoaequorin were transiently introduced to the harvested cells, and the cells were seeded to a 384 well plate (cat. No. 781090, Greiner, Germany) at about 2000 cells/30 μL/well. On the next day of cell seeding, Coelenterazine H (cat. No. S2011, Promega, USA) was added to each well (10 μL/well) to make a final concentration of 0.5 μmol/L, and the plate was centrifuged. Then, the plate was left at room temperature for 4 hours in shaded state.
(2) Preparation of Test Compounds
DMSO solution of each test compound having 1000-fold larger concentration than the final concentration was prepared. The DMSO solutions were made to have 10-fold concentration than the final concentration with Hanks/20 mmol/L Hepes/0.1% BSA.
(3) Evaluation of Agonist Activity
For detection of luminescence signal due to SSTR4-stimulation, FDSS7000 (manufactured by Hamamatsu Photonics K.K.) was used. To plates having cells and the luminescence substrate, solutions of test compounds were added, then each luminescence signal was measured for 90 seconds, and each relative luminescence unit (RLU) was calculated. Based on luminescence signal from the wells to which a 1 μmol/L somatostatin solution was added taken as 100%, agonist activity of each test compound was evaluated.

Data set [3] relates to Slc:ddY mice. Nature of the data set: Mouse Y-shaped maze test, scopolamine-induced memory impairment. The class given is in vivo. Particulars: for spontaneous alternations: Scopolamine HBr 0.6 mg/kg subcutaneous. As for the experimental part:
Evaluation of amelioration in cognitive impairment using mouse Y-shaped maze test (hereinafter, may be called “Y-maze test”)
In the Y-maze test using Slc:ddY mice (male, Japan SLC, Inc.) with body weight of 25-35 g or 27-30 g, when 0.6 mg/kg of Scopolamine HBr (cat. No. S0929, Sigma Aldrich, USA) is subcutaneously administered to mice, memory impairment is caused, and reducing in spontaneous alternation is observed. Accordingly, mice were pre-treated by orally receiving compounds involved with the present invention, and ameliorating action in memory impairment was evaluated. […] (hereinafter, spontaneous alternations in each group in Example 21 are shown: 0.5% MC receiving group, 71.2±3.5; Scopolamine receiving group, 47.5±2.6; 1 mg/kg receiving group, 60.7±2.6; 3 mg/kg receiving group, 64.6±2.2.)

For data set [4], the system named is Slc:ddY mice. Nature of the data set: Mouse novel object recognition test (mORT). The class given is in vivo. Particulars: 3 mg/kg (oral), administered before the first trial. Here is the method: Evaluation of cognitive function using mouse novel object recognition test (hereinafter, may be called “mORT”)
In the mORT using Slc:ddY mice (male, Japan SLC, Inc.) with body weight of 25-45 g or 35-40 g, memory deterioration to familiar subject depending on the interval time between the first trial (training) and the second trial (test) is observed. If the second trial is performed 24 hours after performing the first trial, significant forgetting is observed. […] […] (discrimination index as indexes for cognitive function are shown: 0.5% MC receiving group, 0.054±0.026; 3 mg/kg receiving group, 0.245±0.066.)

Some results are limits rather than exact numbers.

Chain of human SSTR4 (P31391 whole entry): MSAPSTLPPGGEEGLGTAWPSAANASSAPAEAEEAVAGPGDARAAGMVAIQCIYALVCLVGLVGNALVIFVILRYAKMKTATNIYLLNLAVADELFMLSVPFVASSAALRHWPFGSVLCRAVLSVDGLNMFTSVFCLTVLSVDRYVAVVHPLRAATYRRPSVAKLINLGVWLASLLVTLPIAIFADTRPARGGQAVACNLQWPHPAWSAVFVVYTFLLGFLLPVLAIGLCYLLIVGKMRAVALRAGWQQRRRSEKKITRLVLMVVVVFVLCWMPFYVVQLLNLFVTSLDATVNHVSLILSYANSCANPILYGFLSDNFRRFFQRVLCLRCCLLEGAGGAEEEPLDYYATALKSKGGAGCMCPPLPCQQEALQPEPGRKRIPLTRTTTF

On to `CN1CCCC(C(=O)NC(C)(C)c2cc(Cl)ccc2Cl)C1` (centres unmarked) [Example 15], for which, in data set [1], the Kp is roughly 5. Moreover, in data set [2], the “SSTR4 agonist activity compared with other compounds” value is “stronger SSTR4 agonist activity” and the EC50 stood at 3.5 nM.
For `CN1CCCC(C(=O)NC(C)(C)c2cc(Cl)cc(Cl)c2)C1` (centres unmarked) [Example 7], in that order: roughly 5, “stronger SSTR4 agonist activity” and 4.3 nM.
Turning to `CN1CCC[C@H](C(=O)NC(C)(C)c2ccc(Cl)cc2Cl)C1` [Example 20, (3S)—N-[2-(2,4-dichlorophenyl)propane-2-yl]-1-methylpiperidine-3-carboxamide], in data set [1], the Kp is roughly 5. For the same compound, in data set [2], the “SSTR4 agonist activity compared with other compounds” value was “stronger SSTR4 agonist activity” and a half-maximal effect (EC50) was put at 1.3 nM.
Turning to `CN1CCCC(C(=O)NC(C)(C)c2ccc(Cl)cc2Cl)C1` (centres unmarked) [Example 17], the Kp in data set [1] was roughly 5. In addition, in data set [2], the “SSTR4 agonist activity compared with other compounds” value is given as “stronger SSTR4 agonist activity” and the midpoint of the response, the EC50, lay at 2.3 nM.
Consider `Cc1ccc(Cl)cc1C(C)(C)NC(=O)[C@H]1CCCN(C)C1` [Example 50, (3S)—N-[2-(5-chloro-2-methylphenyl)propane-2-yl]-1-methylpiperidine-3-carboxamide], for which the Kp in data set [1] was roughly 5. Further, the EC50 in data set [2] was determined as 4.3 nM.
As for `CN1CCCC(C(=O)NC(C)(C)c2cccc(Cl)c2Cl)C1` (centres unmarked) [Example 16], the Kp in data set [1] is roughly 5. Moreover, in data set [2], the “SSTR4 agonist activity compared with other compounds” value is recorded as “stronger SSTR4 agonist activity” and it took 2.3 nM to reach a half-maximal effect (EC50).
On the same counts, the results for `CN1CCC[C@H](C(=O)NC(C)(C)c2cc(Cl)cc(Cl)c2)C1` [Example 18] are roughly 5, “stronger SSTR4 agonist activity” and 2 nM.
Regarding `CN1CCC[C@H](C(=O)NC(C)(C)c2ccccc2Cl)C1` [Example 40, (3S)—N-[2-(2-chlorophenyl)propane-2-yl]-1-methylpiperidine-3-carboxamide], the Kp in data set [1] is roughly 5. In data set [2], this compound displayed an EC50 of 4.8 nM.
`CN1CCC[C@H](C(=O)NC(C)(C)c2cccc3ccccc23)C1` [Example 2, (3S)-1-methyl-N-[2-(naphthalene-1-yl)propane-2-yl]pyperidine-3-carboxamide]: the spontaneous alternations worked out at 59.6±3.2 in data set [3] (1 mg/kg oral) and 65.0±1.8 in data set [3] (3 mg/kg oral). The “ameliorating action in memory impairment” value in data set [3] (at 1 or 3 mg/kg (oral)) was “significant ameliorating action in memory impairment”. In data set [4], the memory enhancing action entry is given as “a tendency to enhance memory”. For the same compound, the “SSTR4 agonist activity compared with other compounds” value in data set [2] was “stronger SSTR4 agonist activity”.
With `Cc1c(Cl)cccc1C(C)(C)NC(=O)C1CCCN(C)C1` (centres unmarked) [Example 14], the Kp in data set [1] is roughly 5. The compound also returned an EC50 in data set [2] of 5.7 nM.
In data set [2], `CCc1ccccc1C(C)(C)NC(=O)[C@H]1CCCN(C)C1` [Example 76, (3S)—N-[2-(2-ethylphenyl)propane-2-yl]-1-methylpiperidine-3-carboxamide] showed an EC50 of 1.9 nM.
Still for that read-out and setting: as for `COC[C@@H]1CC[C@H](C(=O)NC(C)(C)c2cccc3ccccc23)CN1C` (relative stereo) [Example 105], the figure is greater than 100 nM; as for `CN1CCC[C@H](C(=O)NC(C)(C)c2ccccc2)C1` [Example 39], greater than 100 nM.
Same read-out and setting: as for `C[C@@H]1CC[C@@H](C(=O)NC(C)(C)c2cccc(Cl)c2Cl)CN1C` (relative stereo) [Example 95], the figure is 7.8 nM; as for `CN1CCC[C@H](C(=O)NC(C)(C)c2ccccn2)C1` [Example 56], greater than 100 nM; as for `CCN1CCCC(C(=O)NC(C)(C)c2cccc3ccccc23)C1` (centres unmarked) [Example 111], 6.9 nM.
For `Cc1c(Cl)cccc1C(C)(C)NC(=O)[C@H]1CCCN(C)C1` [Example 27, (3S)—N-[2-(3-chloro-2-methylphenyl)propane-2-yl]-1-methylpiperidine-3-carboxamide], the Kp in data set [1] was roughly 5. Further, in data set [2], the “SSTR4 agonist activity compared with other compounds” value is reported as “stronger SSTR4 agonist activity” and the half-maximal effective concentration (EC50) came out at 2.1 nM.
For `CN1CC[C@@H](c2ccccc2)[C@H](C(=O)NC(C)(C)c2cccc(Cl)c2Cl)C1` (relative stereo) [Example 106], it took 2 nM to reach a half-maximal effect in data set [2] (EC50).
Consider `CN1CCC[C@H](C(=O)NC(C)(C)c2ccc(Cl)cc2-c2ccccc2)C1` [Example 36], for which, in data set [2], the EC50 is greater than 100 nM.
On the same count and under the same terms, as for `Cc1ccc(C(C)(C)NC(=O)[C@H]2CCCN(C)C2)c(C)c1` [Example 35, (3S)—N-[2-(2,4-dimethylphenyl)propane-2-yl]-1-methylpiperidine-3-carboxamide], the figure is 3.3 nM; as for `CN1CCC[C@H](C(=O)NC(C)(C)c2cccc(F)c2Cl)C1` [Example 71, (3S)—N-[2-(2-chloro-3-fluorophenyl)propane-2-yl]-1-methylpiperidine-3-carboxamide], 3.3 nM.
The same measure, in the same setting: as for `CN1CCC[C@H](C(=O)NC(C)(C)c2ccc(F)cc2Cl)C1` [Example 72, (3S)—N-[2-(2-chloro-4-fluorohenyl)propane-2-yl]-1-methylpiperidine-3-carboxamide], the figure is 2.8 nM; as for `CN1CC[C@@H](C(=O)NC(C)(C)c2ccccc2Cl)C1` [Example 80], greater than 100 nM.
